What was measured:
NOX2 = molecular target: T1, NOX2 (Homo sapiens, UniProt P04839); assay: NOX2 activity assay: PMA-induced ROS in ATRA-differentiated HL-60 cells (WST-1 or Amplex Red/HRP probe); format: cell-based; conditions: for IC50: WST-1 probe, differentiated HL-60, 200 ng/mL PMA, read-out: Inhibitory ability (NOX2)
T1 construct: Used for the NOX2 activity assay was human leukemia 60 cells (HL-60), which are widely, universally used to assess NOX2 activity; endogenous in cells
T1 sequence (P04839 2-570 limits assumed): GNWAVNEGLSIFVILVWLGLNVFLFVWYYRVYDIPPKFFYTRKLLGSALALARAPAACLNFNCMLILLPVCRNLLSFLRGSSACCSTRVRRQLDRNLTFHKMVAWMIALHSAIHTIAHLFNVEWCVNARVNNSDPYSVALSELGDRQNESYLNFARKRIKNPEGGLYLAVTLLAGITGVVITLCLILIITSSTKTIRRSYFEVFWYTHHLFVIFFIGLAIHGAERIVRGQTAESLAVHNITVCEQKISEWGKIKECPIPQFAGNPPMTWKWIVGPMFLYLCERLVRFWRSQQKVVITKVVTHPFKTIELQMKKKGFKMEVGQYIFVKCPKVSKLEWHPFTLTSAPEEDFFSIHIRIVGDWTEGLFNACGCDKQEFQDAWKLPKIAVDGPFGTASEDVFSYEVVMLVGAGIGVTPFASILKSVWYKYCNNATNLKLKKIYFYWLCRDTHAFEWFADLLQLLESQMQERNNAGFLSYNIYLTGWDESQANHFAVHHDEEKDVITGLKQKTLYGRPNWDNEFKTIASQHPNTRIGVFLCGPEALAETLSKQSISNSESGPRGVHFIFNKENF
T1 sequence (P13498 2-195 partner limits assumed): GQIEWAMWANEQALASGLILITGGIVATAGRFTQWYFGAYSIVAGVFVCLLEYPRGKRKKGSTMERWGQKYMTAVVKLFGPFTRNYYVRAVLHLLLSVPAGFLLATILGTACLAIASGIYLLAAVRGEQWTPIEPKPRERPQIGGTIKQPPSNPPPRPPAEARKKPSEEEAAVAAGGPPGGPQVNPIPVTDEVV
Method in brief: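 HL-60 cells differentiated with ATRA for 4 days, seeded at 3×10^4 cells/well and preincubated with compound for 60 min at 37 °C. ROS from 200 ng/mL PMA stimulation was followed for 60 min at 37 °C by WST-1 absorbance (450 nm) or Amplex Red/HRP fluorescence (Ex 560/Em 585 nm); DMSO vehicle control.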

[1] = Non-specific free radical scavenging: superoxide produced by xanthine/xanthine oxidase, measured by WST-1; format: biochemical; conditions: compound at 10 or 30 μM
Procedure: The scavenging activity that the effective compound in 10 or 30 μM scavenges the superoxide produced by xanthine/xanthine oxidase was measured by WST-1, the results of which are shown in Table 2.

Row | SMILES | IC50 (NOX2) [µM] | NOX2 inhibitory ability, verbal rating (NOX2; WST-1, comment on Table 1) | scavenging of superoxide produced by xanthine/xanthine oxidase [1]
1 | CC12CC(NC(=O)N1c1cccc(C(=O)N3CCc4ccccc4C3)c1)c1ccccc1O2 (racemic) [Compound 8a, 2-Methyl-3-(3-(1,2,3,4-tetrahydroisoquinoline-2-carbonyl)phenyl)-5,6-dihydro-2H-2,6-methanobenzo[g][1,3,5]oxadiazocin-4(3H)-one] | 1 to 10 |  | did not exhibit significant peroxide scavenging ability
2 | CC1(C)CN(C(=O)c2cccc(N3C(=O)NC4CC3(C)Oc3ccc(-c5ccoc5)cc34)c2)Cc2ccccc21 (centres unmarked) [Compound 28i, 3-(3-(4,4-Dimethyl-1,2,3,4-tetrahydroisoquinoline-2-carbonyl)phenyl)-8-(furan-3-yl)-2-methyl-5,6-dihydro-2H-2,6-methanobenzo[g][1,3,5]oxadiazocin-4(3H)-one] | 1 to 10 |  | 
3 | CC12CC(NC(=O)N1c1cccc(C(=O)N3CCc4ncccc4C3)c1)c1cc(-c3ccoc3)ccc1O2 (centres unmarked) [Compound 28k, 8-(Furan-3-yl)-2-methyl-3-(3-(5,6,7,8-tetrahydro-1,6-naphthyridine-6-carbonyl)phenyl)-5,6-dihydro-2H-2,6-methanobenzo[g][1,3,5]oxadiazocin-4(3H)-one] | > 10 |  | 

Now from value to compound, other results behind:

Row | IC50 (NOX2) [µM] | NOX2 inhibitory ability, verbal rating (NOX2; WST-1, comment on Table 1) | SMILES | scavenging of superoxide produced by xanthine/xanthine oxidase [1]
4 | > 10 |  | CC12CC(NC(=O)N1c1cccc(C(=O)N3CCc4cccc(C(F)(F)F)c4C3)c1)c1cc(-c3ccoc3)ccc1O2 (centres unmarked) [Compound 28g, 8-(Furan-3-yl)-2-methyl-3-(3-(8-(trifluoromethyl)-1,2,3,4-tetrahydroisoquinoline-2-carbonyl)phenyl)-5,6-dihydro-2H-2,6-methanobenzo[g][1,3,5]oxadiazocin-4(3H)-one] | 
5 | > 10 |  | CC12CC(NC(=O)N1c1cccc(C(=O)N3CCc4cc(C(F)(F)F)ccc4C3)c1)c1cc(-c3ccoc3)ccc1O2 (centres unmarked) [Compound 28h, 8-(Furan-3-yl)-2-methyl-3-(3-(6-(trifluoromethyl)-1,2,3,4-tetrahydroisoquinoline-2-carbonyl)phenyl)-5,6-dihydro-2H-2,6-methanobenzo[g][1,3,5]oxadiazocin-4(3H)-one] | 
6 | > 10 | excellent inhibitory ability | CC12CC(NC(=O)N1c1cccc(C(=O)N3CCc4ccccc4C3(C)C)c1)c1cc(-c3ccoc3)ccc1O2 (centres unmarked) [Compound 28j, 3-(3-(1,1-Dimethyl-1,2,3,4-tetrahydroisoquinoline-2-carbonyl)phenyl)-8-(furan-3-yl)-2-methyl-5,6-dihydro-2H-2,6-methanobenzo[g][1,3,5]oxadiazocin-4(3H)-one] | 

Reference: patent publication US20250382303A1, “NOVEL COMPOUND AS NADPH OXIDASE 2 INHIBITOR AND PHARMACEUTICAL COMPOSITION CONTAINING SAME” (DONGGUK UNIVERSITY INDUSTRY-ACADEMIC COOPERATION FOUNDATION, priority 2022, published 2025)
